# Where two headings read alike, the source gives them in different places.
# Tests used:
# [1] = molecular target: T1, human NUDT16 (wild-type) (Homo sapiens, UniProt Q96DE0); assay: Binding of products to NUDT16 by isothermal titration calorimetry
# Protocol: NUDT16 was dialyzed against 20 mM Hepes pH 7.5, 300 mM NaCl, 20 mM MgCl2, 10% glycerol, and 0.5 mM TCEP in a Slide-a-Lyzer cassette (7kDa cut-off). […] The buffer compositions in the cell and the syringe were carefully matched such that the sole difference between them was either the protein or the nucleotide content.
# Titrations were performed at 25°C using 32 injections of 1.2μl of nucleotide solutions (following a 1μl pre-injection) spaced by 120 sec into the 200 μl experimental cell on a iTC200 MicroCal instrument (GE Healthcare) at the Karolinska Institutet/SciLifeLab Protein Science Core Facility (http://psf.ki.se).
# Binding isotherm and thermodynamic constants were determined through fitting experimental data against a one-site binding-model (number of sites, ΔH and K a being unconstrained during refinement) on Origin software v7.0552 (OriginLab).
# [2] = tested on: NUDT16; settings: cited from earlier work; for K m, Ref. 14 / k cat, Ref. 14 / k cat/K m, Ref. 14: literature values, ref 14 (Iyama et al)
# [3] = molecular target: T1, human NUDT16 (wild-type); assay: Determination of kinetic parameters of NUDT16 wild-type (malachite green phosphate release assay); assay type: biochemical; parameters: 6-His tag followed by TEV protease site (N, cleaved yes); made in house; host or cells: E. coli Rosetta pLysS; settings: for Hydrolysis by NUDT16 (qualitative): malachite green assay, sub-μM K m not determinable; for k cat/K m, This work / k cat, This work / K m, This work: Michaelis-Menten fit; for k cat, This work / K m, This work: substrate hydrolysis, 37°C; for K m, This work: buffer pH 7.5, 20 mM MgCl2
# Excerpt: To establish an assay to look for product inhibition and to understand the role of the different substituents present on the purine ring, we first wanted to assess the activity of our protein preparations and compare it to the results obtained by Iyama et al. on NUDT16 activity on different nucleotides. Contrary to the results presented in the structural biology part, we used wild-type NUDT16 (no A22V mutation) for these activity studies. Using a malachite green based activity assay for quantification of phosphate release, we determined the kinetic parameters of NUDT16 hydrolysis when incubated in the presence of ITP, XDP and ADP (S3A–S3C Fig), all of which have a suitable K m for assessment with this assay and for inhibition studies (low μM range). The results are summarized and compared in Table 1 with the literature values. […] Our K m values for XDP and ITP are in the same range as data reported in Iyama et al.. Discrepancies between the two studies can be explained by differences in the detection methods (HPLC or malachite green assay), the protein constructs (with or without His-tag) and the buffer conditions. […] However, the k cat for ADP was 15 times higher, leading to a catalytic efficiency in the same range as the one determined for XDP and ITP. Such a correlation between low affinity K m values and low apparent rate constant values is also noticeable when looking more broadly at available data for the purine based substrates.
# (§1) Each sample point was obtained in the presence of 1 μM of NUDT16 (0.1 μM when assayed for activity against ITP) and various concentrations of substrates in buffer C (50 mM Tris-HCl pH 7.5, 150 mM NaCl, 20 mM MgCl2, 0.005% Tween-20, and 0.5 mM TCEP). When ITP was used as a substrate, 0.1 unit of yeast inorganic pyrophosphatase (Sigma-Aldrich) was added to the well. The activity assay was performed in 100 μl in a 96-well plate at 37°C and was stopped by addition of 25 μl of Malachite Green Working Solution (prepared as described in [42]). Plate was kept under shaking at room-temperature for 15 min, then 100 μl were transferred into a 384-well plate and the measurement of the absorbance at 630nm was carried out either on a CLARIOstar (BMG LABTECH) or a Victor^3 (PerkinElmer) reader.
# (§2) The amount of free phosphate produced during the hydrolysis was estimated by comparison with a standard curve.
# (§3) Experiments were performed in triplicate and data analysis was done on GraphPad Prism version 5.01 for Windows (GraphPad Software, San Diego California USA, www.graphpad.com).
# (§4) For each assayed substrate, starting substrate concentrations (varying from 0.5 to 240 μM) and incubation times (from 20 to 240 min) were selected in order for the quasi-steady-state assumption to remain valid.
# [4] = molecular target: T2, NUDT16 A22V (Homo sapiens, UniProt Q96DE0, A22V); assay: Determination of kinetic parameters of NUDT16 A22V (malachite green assay); assay type: biochemical; settings: A22V mutant, Michaelis-Menten fit
# T2 construct: 6-His tag followed by TEV protease site (N, cleaved yes); made in house; host or cells: E. coli Rosetta
# T2 sequence (Q96DE0 whole entry A22V): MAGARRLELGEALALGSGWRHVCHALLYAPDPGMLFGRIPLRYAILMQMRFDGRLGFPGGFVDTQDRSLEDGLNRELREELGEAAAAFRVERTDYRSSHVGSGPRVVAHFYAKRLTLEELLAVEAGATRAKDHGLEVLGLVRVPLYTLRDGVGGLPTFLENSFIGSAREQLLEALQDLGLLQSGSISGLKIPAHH
# Protocol: It is worth noting that the protein construct used to obtain the two NUDT16 crystal structures harbors an A22V mutation (see Material and Methods section). […] This was confirmed by comparing the kinetic parameters of NUDT16 wild-type with those obtained with the A22V mutation (S1 Table) when NUDT16 was assayed against XDP and ITP. […] Detailed schemes of all interactions between protein, nucleotide and metals are shown on Fig 3C–3E.
# as §1, §2, §3, §4
# The procedure was identical whether NUDT16 wild-type or A22V was used in the assay.
# [5] = ITC, 25°C, one binding-site model
# T1 sequence (Q96DE0 whole entry): as the sequence (Q96DE0 whole entry A22V) above, with V22A counted along it
"k cat/K m, This work ([3]; NUDT16 wild-type)","k cat, This work ([3]; NUDT16 wild-type) [s⁻¹]","K m, This work ([3]; NUDT16 wild-type) [µM]",SMILES,"K m, Ref. 14 [2] [µM]","k cat, Ref. 14 [2] [s⁻¹]","k cat/K m, Ref. 14 [2]",other results
,,,Nc1ncnc2c1ncn2[C@@H]1O[C@H](COP(=O)(O)O)[C@@H](O)[C@H]1O [AMP],,,,"Kd ([1]; ITC, 25°C, one binding-site model, 20 mM MgCl2, pH 7.5): too low for establishing good binding constants"
,,,Nc1nc2c(ncn2[C@@H]2O[C@H](COP(=O)(O)OP(=O)(O)O)[C@@H](O)[C@H]2O)c(=O)[nH]1 [GDP],0.33,0.00863,26.1 10^3 s^-1M^-1,Hydrolysis by NUDT16 (qualitative) [3]: process efficiently
1.55 ± 0.20 10^3 s^-1M^-1,0.0127 ± 0.0005,8.23 ± 1.01,O=c1[nH]cnc2c1ncn2[C@@H]1O[C@H](COP(=O)(O)OP(=O)(O)OP(=O)(O)O)[C@@H](O)[C@H]1O [ITP],22.1,0.051,2.31 10^3 s^-1M^-1,"Km [4]: 12.8 ± 1.46 µM; kcat, NUDT16 A22V [4]: 0.00657 ± 0.000217 s⁻¹"
0.99 ± 0.23 10^3 s^-1M^-1,0.00613 ± 0.0013,6.22 ± 0.55,O=c1[nH]c(=O)c2ncn([C@@H]3O[C@H](COP(=O)(O)OP(=O)(O)O)[C@@H](O)[C@H]3O)c2[nH]1 [XDP],15.7,0.0433,2.76 10^3 s^-1M^-1,"Km [4]: 9.7 ± 1.25 µM; kcat, NUDT16 A22V [4]: 0.00515 ± 0.0002 s⁻¹"
,,,O=c1[nH]c(=O)c2ncn([C@@H]3O[C@H](COP(=O)(O)O)[C@@H](O)[C@H]3O)c2[nH]1 [XMP],,,,"Kd [1]: 39.06 ± 0.07 µM; N sites [1, 5]: 0.821 ± 0.024"
,,,"O=P(O)(O)OP(=O)(O)OC[C@H]1O[C@@H](n2cnc3c(O)ncnc32)[C@H](O)[C@@H]1O [IDP, inosine diphosphate]",0.066,0.0155,251 10^3 s^-1M^-1,K m for IDP relative to ITP (times lower) ([2]; ref 14 (Iyama et al.)): 350 times; Hydrolysis by NUDT16 (qualitative) [3]: process efficiently
,,,Nc1nc(=O)c2ncn([C@@H]3O[C@H](COP(=O)(O)O)[C@@H](O)[C@H]3O)c2[nH]1 [GMP],,,,"Kd [1]: 34.25 ± 0.05 µM; N sites [1, 5]: 1.080 ± 0.015"
0.52 ± 0.10 10^3 s^-1M^-1,0.0959 ± 0.00897,185 ± 32,Nc1ncnc2c1ncn2[C@@H]1O[C@H](COP(=O)(O)OP(=O)(O)O)[C@@H](O)[C@H]1O [ADP],,,,K m for ADP relative to XDP (times higher) ([3]; NUDT16 wild-type): about 30 times; k cat for ADP relative to XDP (times higher) ([3]; NUDT16 wild-type): 15 times
